Data published in patent publication US8222260B2, “Substituted 6-anilinopurine derivatives as inhibitors of cytokinin oxidase/dehydrogenase and preparations containing these derivatives” (Univerzita Palackego V Olomouci, priority 2007, dated 2012).

Columns and labels:
[1] = system: Amaranthus caudatus cotyledon/hypocotyl explants; experiment: Amaranthus bioassay (betacyanin content); type: cell-based, Amaranthus caudatus var. atropurpurea; settings: at the concentration with highest activity, relative to 10^−5 M kinetin
Outline: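 Etiolated A. caudatus cotyledon/hypocotyl explants (72 h seedlings, roots removed) incubated 48 h at 25 °C in darkness on medium with phosphate buffer pH 6.8, tyrosine and test compound. Betacyanin extracted in acetic acid, quantified as A537−A620.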

[2] = system: breast carcinoma cell line MCF-7; experiment: Calcein AM cytotoxicity assay; type: cell-based, human; settings: Homo sapiens, MCF7, 72 hours
NIH-3T3 (fibroblasts) = experiment: Calcein AM cytotoxicity assay; type: cell-based, Mouse; settings: Mus musculus, NIH3T3, 72 hours
Outline: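 Cells seeded at 2.500-30.000 per well, pre-incubated 24 hours, then exposed to compound (usually six 3-fold dilutions, triplicates) for 72 hours at 37° C, 5% CO2; NIH-3T3 grown in DMEM with 10% fetal calf serum. Calcein AM added at 1 μg/ml final, fluorescence read after 1 hour. GI calculated as blank-corrected fluorescence relative to untreated control.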

[3] = system: osteosarcoma cell line HOS; experiment: Calcein AM cytotoxicity assay; type: cell-based, human; settings: Homo sapiens, 72 hours
Outline: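 Cells seeded at 2.500-30.000 per well, pre-incubated 24 h, then exposed 72 h at 37 °C to six 3-fold dilutions (top 166.6 μM), in triplicate. Calcein AM added to 1 μg/ml for 1 h; fluorescence gives growth inhibition, GI50 taken from dose-response curves.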

Structure (SMILES)	Activity (%) [10^−5 mol · l^−1 K = 100%] [1]	GI50 [2]	GI50 (NIH-3T3 (fibroblasts))	GI50 [3]
Fc1cccc(Nc2nc(Cl)nc3nc[nH]c23)c1 [Compound 6, 2-Chloro-6-(3-fluoroanilino)purine]	120%	> 167 µM	> 167 µM	> 167 µM
COc1cccc(Nc2nc(F)nc3nc[nH]c23)c1 [Compound 51, 2-Fluoro-6-(3-methoxyanilino)purine]	117.2%	> 167 µM	> 167 µM	> 167 µM
Nc1nc(Nc2cccc(O)c2)c2nc[nH]c2n1 [Compound 72]	119.8%	> 167 µM	> 167 µM	> 167 µM
Nc1nc(Nc2cccc(Cl)c2)c2nc[nH]c2n1 [Compound 66]	122%	> 167 µM	> 167 µM	> 167 µM
Clc1cccc(Nc2nc(Cl)nc3nc[nH]c23)c1 [Compound 3, 2-Chloro-6-(3-chloroanilino)purine]	166%	> 167 µM	> 167 µM	> 167 µM
Fc1cccc(Nc2nc(S)nc3[nH]cnc23)c1 [Compound 83]	133.5%	> 167 µM	> 167 µM	> 167 µM
Clc1ccc(Nc2nc(Cl)nc3[nH]cnc23)cc1 [Compound 4]	107%	> 167 µM	> 167 µM	> 167 µM
c1coc(CNc2ncnc3nc[nH]c23)c1 [Kinetin, 6-furfurylaminopurine, reference compound]	100%	> 167 µM	> 167 µM	> 167 µM
COc1cccc(Nc2nc(Cl)nc3nc[nH]c23)c1 [Compound 12, 2-Chloro-6-(3-methoxyanilino)purine]	132.3%	> 167 µM	> 167 µM	> 167 µM
Oc1cccc(Nc2nc(F)nc3[nH]cnc23)c1 [Compound 48]	100.3%	> 167 µM	> 167 µM	> 167 µM
Fc1nc(Nc2cccc(Cl)c2)c2nc[nH]c2n1 [Compound 42]	121%	> 167 µM	> 167 µM	> 167 µM
Fc1nc(Nc2ccccc2)c2nc[nH]c2n1 [Compound 40]	107%	> 167 µM	> 167 µM	> 167 µM
Oc1cccc(Nc2nc(Cl)nc3nc[nH]c23)c1 [Compound 9, 2-Chloro-6-(3-hydroxyanilino)purine]	115.4%	> 167 µM	> 167 µM	> 167 µM
Clc1nc(Nc2ccccc2)c2[nH]cnc2n1 [Compound 1, 2-Chloro-6-anilinopurine]		> 167 µM	> 167 µM	> 167 µM
